# Assay results published in patent publication US20150202224A1, “METHOD OF TREATING IRON DEFICIENCY ANEMIA” (Luitpold Pharmaceuticals, Inc., priority 2012, published 2015).
# Like-named read-outs stand apart in the source and are kept apart here.
# Experiments:
# [1] = system: subjects with iron deficiency anemia (IDA); assay: Randomized trial of ferric carboxymaltose vs. oral iron in non-responders to the oral iron run-in: hemoglobin levels; format: in vivo, human; conditions: for Hemoglobin at baseline (Day 1), mean (SD): before randomized treatment, non-responders to oral iron run-in; for Hemoglobin change to Day 35, mean (SD) / Hemoglobin change to Day 35, median: change from baseline (Day 1) to Day 35; for percentage of subjects with a hemoglobin increase of ≧1 g/dL: non-responders to the oral iron run-in in whom hepcidin values were measured; for percentage of subjects with a hemoglobin increase of ≧1 g/dL / mean Hemoglobin increases / percentage of subjects with hemoglobin change ≧2 g/dL: after randomization; for mean Hemoglobin increases / percentage of subjects with hemoglobin change ≧2 g/dL: non-responders to the oral iron run-in
# Method: The following example describes hepcidin measurements obtained during a randomized, multi-center, controlled trial comparing the efficacy and safety of ferric carboxymaltose in subjects with iron deficiency anemia (IDA) (see generally, Szczech 2011).
# (§1) Ferric carboxymaltose (Group A) was administered at a dose of 15 mg/kg to a maximum 750 mg per dose administered intravenously on Day 0 and Day 7. Oral iron was given as ferrous sulfate 325 mg three times a day for an additional 14 days starting on Day 0.
# Hemoglobin levels and markers of iron status were assessed up to 35 days and measures of safety and tolerability were assessed up to 120 days. Hemoglobin levels and markers of iron status were assessed at screening (Day […]), Day 1, and Day 35.
# (§2) The following example describes the randomized study of ferric carboxymaltose (FCM) vs. oral iron therapy on non-responders. Baseline (Day 1) and post-treatment (Day 35) levels of hepcidin and hemoglobin were compared.
# hepcidin = assay: Randomized trial of ferric carboxymaltose vs. oral iron in non-responders: serum hepcidin levels by C-ELISA; format: in vivo, human; conditions: for Hepcidin on Day 35, mean (SD) / Hepcidin on Day 35, median / Hepcidin at baseline (Day 1), mean (SD) / Hepcidin at baseline (Day 1), median: non-responders to oral iron run-in; for Hepcidin at baseline (Day 1), mean (SD): before randomized treatment; for Hepcidin change to Day 35, mean (SD) / Hepcidin change to Day 35, median: change from baseline (Day 1) to Day 35; for change in hepcidin from baseline (Day 1) to Day 35, in words: non-responders to the oral iron run-in
# Method: as §1
# Hepcidin levels were analyzed from serum samples obtained at screening (Day […]) in an initial Analysis Group (I) of 44 subjects, 22 responders, and 22 non-responders. A hepcidin value of ≧20 ng/mL was identified as a cutoff for further study in the determination of predictive values for non-responsiveness to 14 day oral iron run-in in 240 subjects (Analysis Group II).
# Hepcidin levels were also assessed after the oral iron run-in (Day 1) and after treatment with intravenous (IV) iron or oral iron post-randomization (Day 35). Hepcidin levels were measured using a commercially available competitive enzyme-linked immunosorbent assay (C-ELISA). Samples were collected by the investigator at the site, stored by a contract research organization (Covance, Indianapolis, Ind.) and sent to a commercial laboratory (Intrinsic LifeSciences, La Jolla, Calif.) for analysis.
# as §2
# [2] = in vivo; cited from earlier work
# rodents and dogs = conditions: single dose; cited from earlier work
# dogs and rats = conditions: cumulative doses over 13 weeks, dose-related clinical signs of iron accumulation in liver, spleen, kidneys; cited from earlier work
# rabbit = conditions: intra-arterial, perivenous or intravenous; cited from earlier work
# [3] = in vitro and in vivo; cited from earlier work
# dextran antibodies = conditions: cited from earlier work
# [4] = cited from earlier work
# [5] = system: subjects with iron deficiency anemia (IDA); conditions: Analysis Group II, ferrous sulfate 325 mg three times daily for 14 days
# Method: Eligibility for this trial included subjects≧18 years of age with hemoglobin≦11 g/dL and IDA of any etiology with ferritin≦100 ng/mL, or ≦300 ng/mL when transferrin saturation (TSAT) was ≦30%.
# The following example describes the determination and comparison of hepcidin levels in 240 subjects with response to oral iron. Hepcidin and other iron indices were measured and compared. The objective of the study was to determine the baseline characteristics of the subject population and to compare levels of hepcidin, hemoglobin, and iron indices in responders and non-responders after a 14 day treatment of oral iron.
# [6] = listed as ferric carboxymaltose
Substance,"Hemoglobin on Day 35, mean (SD) [1]","Hemoglobin on Day 35, median [1] [g/dL]","Hemoglobin at baseline (Day 1), median [1] [g/dL]","Hemoglobin at baseline (Day 1), mean (SD) [1]","Hemoglobin change to Day 35, mean (SD) [1]","Hemoglobin change to Day 35, median [1] [g/dL]",percentage of subjects with a hemoglobin increase of ≧1 g/dL [1] [%],mean Hemoglobin increases [1] [gm/dL],percentage of subjects with hemoglobin change ≧2 g/dL [1] [%],"Hepcidin on Day 35, mean (SD) (hepcidin)","Hepcidin on Day 35, median (hepcidin) [ng/mL]","Hepcidin at baseline (Day 1), mean (SD) (hepcidin)","Hepcidin at baseline (Day 1), median (hepcidin) [ng/mL]","Hepcidin change to Day 35, mean (SD) (hepcidin)","Hepcidin change to Day 35, median (hepcidin) [ng/mL]","change in hepcidin from baseline (Day 1) to Day 35, in words (hepcidin)",also measured
"polynuclear iron (III)-hydroxide 4(R)-(poly-(1→4)-O-α-glucopyranosyl)-oxy-2(R),3(S),5(R),6-tetrahydroxy-hexanoate [FCM]",12.0 (1.4) g/dL,12.2,10.4,10.3 (1.1) g/dL,1.7 (1.3) g/dL,1.7,65.3,1.7±1.3,37.5,160.5 (181.543) ng/mL,112.6,39.2 (92.236) ng/mL,2.5,121.35 (115.977) ng/mL,91.9,significant increase,"Hemoglobin change to Day 35, mean (SD) [1, 6]: 1.7 g/dL; Hepcidin on Day 35, mean (SD) (hepcidin; [6]): 160.51 ng/mL; Hepcidin at baseline (Day 1), mean (SD) (hepcidin; [6]): 39.15 ng/mL; Hepcidin change to Day 35, mean (SD) (hepcidin; [6]): 121.35 ng/mL; acute toxicity relative to iron sucrose [2]: one-fifth that of iron sucrose; safe and tolerated intravenous dose as multiple of the equivalent of an intravenous infusion of 1,000 mg iron once weekly in humans (rodents and dogs): up to 60 times; no observed adverse effect level, cumulative dose (dogs and rats): up to 117 mg iron/kg body weight; treatment-related local tissue irritation (rabbit): No treatment-related local tissue irritation was observed; mutagenicity [3]: no evidence that FCM is clastogenic, mutagenic, or causes chromosomal damage or bone marrow cell toxicity; reaction with dextran antibodies (dextran antibodies): does not react with dextran antibodies; specific responses in a dextran antigenicity test (dextran antibodies): no specific responses; injected amount still in the blood ([4]; eight hours after intravenous administration): 5 to 20%; projected calculated terminal half-life (t½) ([4]; intravenous): approximately 16 hours"
iron sucrose,,,,,,,,,,,,,,,,,"injected amount still in the blood ([4]; in vivo, iv): 2 to 13%; projected calculated terminal half-life (t½) ([4]; in vivo, iv): 6 h"
ferrous sulfate [Oral iron],11.0 (1.3) g/dL,10.9,10.7,10.4 (1.2) g/dL,0.6 (0.9) g/dL,0.5,20.8,0.6±0.9,5.2,29.0 (53.894) ng/mL,10.5,32.0 (44.314) ng/mL,19.6,−3.02 (41.793) ng/mL,-6.0,no significant change,"Hemoglobin change to Day 35, mean (SD) ([1]; listed as oral iron): 0.6 g/dL; Hepcidin at baseline (Day 1), mean (SD) (hepcidin; listed as oral iron): 32.03 ng/mL; hemoglobin change after the 14 day oral iron run-in, non-responders ([5]; non-responders (Hb Δ <1 g/dL)): 0.2 ± 0.4 g/dL; hemoglobin change after the 14 day oral iron run-in, responders ([5]; responders (Hb Δ ≧1 g/dL)): 1.8 ± 0.6 g/dL"
